How the values were obtained:
wildtype (Col-0) = assay: Lateral root number with exogenous auxin, wildtype; assay type: in vivo, Arabidopsis; conditions: for lateral root number: Col-0, mean ± SE
Experimental: (§1) FIG. 4. Reduced AtMyb77 expression reduces lateral root growth sensitivity to exogenous auxin. (A) atmyb77-1 T-DNA insertion line and wild-type Arabidopsis Col-0 grown on MS plates with no added auxin have the same number and length of lateral roots. (B) atmyb77-1 has more lateral roots than wildtype Col-0 with 100 nM IAA and (C) 80 nM 2, 4-D. (D) Mean lateral root numbers per primary root under control conditions and with 100 nM IAA and 80 nM 2, 4-D (n=100±SE).
(§2) The effects of exogenous auxin on lateral root growth under control conditions were also tested in wild-type and atmyb77-1 plants. Wildtype Col-0 and atmyb77-1 plants had the same number of lateral roots and the same primary root length under control conditions (FIGS. 4A and D; Table I). […] Primary root length was the same between lines for each treatment.

[1] = system: atmyb77 T-DNA insertion lines (KO); assay: Lateral root number with exogenous auxin, atmyb77 T-DNA insertion line; assay type: in vivo, Arabidopsis; conditions: mean ± SE
Experimental: as §1, §2

[2] = system: AtMyb77 promoter::GUS plants; assay: AtMyb77 promoter::GUS reporter expression in roots after auxin; assay type: in vivo, Arabidopsis; conditions: 100 nM IAA, lateral roots, one day
Experimental: To localize GUS activity, plants were stained with 1 mM X-Gluc solution 4 days after germination (DAG) (Vicente-Agullo et al. 2004) and were de-stained (Malamy and Benfey 1997). The pictures were taken using a Nikon SMZ1500 dissecting microscope (Nikon). Plants were transferred 3-DAG to full nutrient (1.75 mM KCl) or to low K plates (10 μM KCl), and then grown for 7 days before staining. For auxin treatment, plants were transferred 6-DAG to full nutrient plates (no auxin), and to plates containing 100 nM of IAA, or 80 nM of 2, 4-D, and then grown for one day before staining. Incubation time was 60 minutes and protein concentration was calculated with the CB-X kit (GenoTech).
Expression of AtMyb77-promoter driven GUS expression was detected in roots (FIG. 3) and leaves of seedlings. In roots the expression was localized to the inner cell layers of the primary root including the stele (FIGS. 3A and B). At the tip of primary roots expression of GUS was also seen in the root cap cells (FIG. 3A). Throughout the root expression was visible in the vascular tissue. An interesting pattern of expression was observed during the development of lateral roots. Initially when the lateral roots emerge, the reporter gene expression was observed above and below the emerging lateral root primordia in the cortical cells (FIG. 3C). […]

wildtype Col-0 roots = assay: Northern blot of auxin regulated genes in roots, wildtype; assay type: in vivo, Arabidopsis; conditions: 20 μM IAA
Experimental: (§3) FIG. 6. Northern blots of Arabidopsis wildtype Col-0 and T-DNA insertion line atmyb77-1 roots grown in hydroponic conditions for 7 weeks and treated with 20 μM IAA for 0, 6, 30 and 54 hours. Northern blots were probed with 3′ probes from auxin regulated and related genes. Ribosomal RNA loading control shown at bottom.
(§4) Plants were initially grown in nutrient solutions using a rock wool system (Gibeaut et al. 1997) for six weeks at 22° C. with 8 h daylight at 200 μmol.m-2.s-1. Three weeks after germination, plants were transferred to hydroponic tanks containing nutrient medium (Shin et al. 2005) with aeration. Plants were then exposed to a final concentration of 20 μM of IAA (Sigma-Aldrich, St.Louis, Mo.) in the nutrient solutions. After 6 h, 30 h and 54 h roots were harvested. For probes, cDNA fragments were amplified from Arabidopsis cDNA by PCR using primers for the indicated genes as follows: […]
(§5) The amplified cDNAs were labeled with α-^32P-dCTP (Amersham) and Northern blot analyses were performed as described (Shin et al. 2005).

[3] = system: atmyb77-1 T-DNA insertion line roots; assay: Northern blot of auxin regulated genes in roots, atmyb77-1; assay type: in vivo, Arabidopsis; conditions: 20 μM IAA; 6, 30, 54 h; atmyb77-1 roots
Experimental: as §3, §4, §5

MRE element = assay: Gel mobility shift assay, MRE; assay type: binding, Arabidopsis; conditions: 100 ng AtMyb77::His, 3x repeat labeled oligo
Experimental: (§6) An AtMyb77 cDNA fragment was amplified by PCR and cloned into the Ndel and SacI sites of the pET28 vector (Novagen, Madison, Wis., USA). The primer set used for the amplification was 5′-[…]-3′ (SEQ ID NO:37) and 5′-[…]-3′ (SEQ ID NO:38). The resulting in-frame fusion was transformed into Escherichia coli strain BL21 (DE3). Overexpression of AtMyb77::His was induced by 0.5 mM isopropyl-β-D-thiogalactoside at 20° C. for 4 h. Bacteria were pelleted after the induction period, suspended in lysis buffer (50 mM NaH2PO4H2O, 300 mM NaCl, 10 mM Imidazole) and subjected to sonication on ice for 1 min. Bacterial lysates were then centrifuged. The His tagged fusion protein was recovered by affinity chromatography on Nickel-NTA (Sigma-Aldrich, St. Louis, Mo., USA) and the purified protein was used for gel mobility shift assays.
(§7) Both strands of the MRE element ([…]; SEQ ID NO:39) (Hoerena et al. 1998), the MYBcore element ([…]; SEQ ID NO:40) (Larsen 2003), mutated MRE (mMRE) element ([…]; SEQ ID NO:41), mutated MYBcore (mMYBcore) element ([…]; SEQ ID NO:42) and GCC box ([…]; SEQ ID NO:43; Fujimotoa et al., 2000) were synthesized and were end-labeled with […] (Amersham, Pittsburgh, Pa., USA) by T4 polynucleotide kinase (New England Biolabs, Beverly, Mass., USA) at 37° C. for 1 h. […]

MYBcore element = assay: Gel mobility shift assay, MYBcore; assay type: binding, Arabidopsis; conditions: 100 ng AtMyb77::His, 3x repeat labeled oligo
Experimental: as §6, §7

[4] = system: mutated MRE (mMRE) element; assay: Gel mobility shift assay, mutated MRE; assay type: binding; conditions: band shift
Experimental: as §6, §7

[5] = system: mutated MYBcore (mMYBcore) element; assay: Gel mobility shift assay, mutated MYBcore; assay type: binding; conditions: band shift
Experimental: as §6, §7

GCC box = assay: Gel mobility shift assay, GCC box; assay type: binding; conditions: band shift
Experimental: as §6, §7

## O=C(O)COc1ccc(Cl)cc1Cl [2,4,-D, 2,4-dichlorophenoxyacetic acid]
Wildtype (Col-0); 80 nM 2,4-D
  lateral root number: 7.41 ± 0.20 days
Wildtype (Col-0); seedlings treated with 80 nM 2,4-D
  lateral root formation, wildtype compared to atmyb77-1: reduced significantly more in the wildtype
[1]; 80 nM 2,4-D
  lateral root number: 8.80 ± 0.19b

## O=C(O)Cc1c[nH]c2ccccc12 [IAA, indoleacetic acid]
Wildtype (Col-0); 100 nM IAA
  lateral root number: 10.05 ± 0.55b
Wildtype (Col-0); seedlings treated with 100 nM IAA
  lateral root formation, wildtype compared to atmyb77-1: reduced significantly more in the wildtype
[1]; 100 nM IAA
  lateral root number: 13.57 ± 0.38c
[2]
  AtMyb77 promoter driven GUS expression: increase in the expression
Wildtype Col-0 roots; 6, 30, 54 h vs 0 h, wild-type roots
  expression of IAA19, IAA1, IAA28, AUX1, SAUR-AC1, AXR1, ARF7, AtMyb77 and Tir1: Clear induction of expression
Wildtype Col-0 roots; after 54 hours, wildtype roots
  PIN1 expression: not induced
[3]
  induction of auxin regulated genes: greatly attenuated or abolished

## AtMyb77: HIS tagged AtMyb77 R2R3 Myb transcription factor protein (SEQ ID NO:10) purified from E. coli
MRE element
  binding to MRE sequence (band shift): bound
MYBcore element
  binding to MYBcore sequence (band shift): bound
[4]
  binding to MRE with single nucleotide change: eliminated the interaction and binding
[5]
  binding to MYBcore with single nucleotide change: eliminated the interaction and binding
GCC box
  binding to ethylene binding element (GCC): no interaction

From patent publication US20080196124A1, “Plant Growth Hormone Regulated Transcription Factors and Promoters Thereof” (DONALD DANFORTH PLANT SCIENCE CENTER, priority 2006, published 2008)
